From patent US10294202B2, “Pyrrolidinones as herbicides” (FMC Corporation, priority 2013, dated 2019)

Tests used:
soybean = test: Test C pre-/postemergence herbicide test; format: in vivo, Glycine max
Outline: (§1)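 Compound solutions contained surfactant in a non-phytotoxic solvent. These were sprayed onto pots of loam/sand sown with seeds, and onto young plants (2 to 18 cm, 1- to 4-leaf) in sphagnum peat–vermiculite mix. Visual injury scores (0 none, 100 complete control) were recorded after 13 to 15 days.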

sedge, umbrella = test: Test B flooded paddy test; format: in vivo, Cyperus difformis; conditions: 500 g ai/ha, Flood; scale of 0 to 100 where 0 is no effect and 100 is complete control
Outline: (§2)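 Treatment was made at the 2-leaf stage by dosing the standing floodwater, kept 3 cm above soil level for the whole test. Greenhouse exposure lasted 13 to 15 days. Response is a visual percent rating relative to controls, where a dash indicates no test result.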

oat, wild = test: Test C pre-/postemergence herbicide test; format: in vivo, Avena fatua; conditions: Postemergence
Outline: as §1

lambsquarters = test: Test C pre-/postemergence herbicide test; format: in vivo, Chenopodium album
Outline: as §1

johnsongrass = test: Test C pre-/postemergence herbicide test; format: in vivo, Sorghum halepense
Outline: as §1

ragweed = test: Test C pre-/postemergence herbicide test; format: in vivo, Ambrosia elatior
Outline: as §1

rice = test: Test B flooded paddy test; format: in vivo, Oryza sativa; conditions: 500 g ai/ha, Flood; scale of 0 to 100 where 0 is no effect and 100 is complete control
Outline: as §2

barnyardgrass = test: Test C pre-/postemergence herbicide test; format: in vivo, Echinochloa crus-galli
Outline: as §1

waterhemp = test: Test C pre-/postemergence herbicide test; format: in vivo, Amaranthus rudis
Outline: as §1

morningglory = test: Test C pre-/postemergence herbicide test; format: in vivo, Ipomoea coccinea
Outline: as §1

corn = test: Test A pre-/postemergence herbicide test; format: in vivo, Zea mays; conditions: Postemergence
Outline: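 Formulated compound (non-phytotoxic solvent, surfactant) sprayed pre- onto soil of seeded loam/sand pots or post- onto seedlings at 1–2 leaves; ~10 d greenhouse; 0–100 visual control rating versus untreated.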

[1] = Postemergence, 31 g ai/ha, scale 0 to 100 (0 no effect, 100 complete control)
[2] = Postemergence, 62 g ai/ha, scale 0 (no effect) to 100 (complete control)
[3] = Postemergence, 125 g ai/ha, scale 0 to 100 (0 no effect, 100 complete control)
[4] = Postemergence, 250 g ai/ha, scale 0 to 100 (0 no effect, 100 complete control)
[5] = Preemergence, 31 g ai/ha, scale 0 to 100, 0 is no effect and 100 is complete control
[6] = Preemergence, 62 g ai/ha, scale 0 to 100 (0 no effect, 100 complete control)
[7] = Preemergence, 125 g ai/ha, scale 0 to 100 (0 no effect, 100 complete control)
[8] = 31 g ai/ha, scale 0 to 100 (0 no effect, 100 complete control)
[9] = 62 g ai/ha, scale 0 (no effect) to 100 (complete control)
[10] = 125 g ai/ha, scale 0 to 100 (0 no effect, 100 complete control)
[11] = 250 g ai/ha, scale 0 to 100 (0 no effect, 100 complete control)
[12] = 125 g ai/ha, visual rating on 0 to 100 scale (0 no effect, 100 complete control), approx. 10 days
[13] = 500 g ai/ha, 0 to 100 scale (0 no effect, 100 complete control)

SMILES: CN1CC(c2ccc(F)c(F)c2)C(C(=O)Nc2cccc(F)c2F)C1=O (centres unmarked) [Compound 303]
- Plant response rating, Soybean (soybean; [1]): 0
- Plant response rating, Soybean (soybean; [2]): 0
- Plant response rating, Soybean (soybean; [3]): 0
- Plant response rating, Soybean (soybean; [4]): 0
- Soybean plant response rating (soybean; [5]): 0
- Soybean plant response rating (soybean; [6]): 0
- Plant response rating, Soybean (soybean; [7]): 0
- Plant response rating (scale of 0 to 100), Soybean (soybean; Preemergence, 250 g ai/ha): 20
- Plant response rating, Sedge, Umbrella (sedge, umbrella): 0
- Plant response rating, Oat, Wild (oat, wild; [8]): 0
- Plant response rating, Oat, Wild (oat, wild; [9]): 0
- Plant response rating, Oat, Wild (oat, wild; [10]): 0
- Plant response rating, Oat, Wild (oat, wild; [11]): 0
- Plant response rating, Lambsquarters (lambsquarters; [1]): 35
- Plant response rating, Lambsquarters (lambsquarters; [2]): 85
- Plant response rating, Lambsquarters (lambsquarters; [3]): 65
- Plant response rating, Lambsquarters (lambsquarters; [4]): 80
- Lambsquarters plant response rating (lambsquarters; [5]): 55
- Lambsquarters plant response rating (lambsquarters; [6]): 60
- Plant response rating, Lambsquarters (lambsquarters; [7]): 65
- Plant response rating (scale of 0 to 100), Lambsquarters (lambsquarters; Preemergence, 250 g ai/ha): 80
- Plant response rating, Johnsongrass (johnsongrass; [1]): 0
- Plant response rating, Johnsongrass (johnsongrass; [2]): 0
- Plant response rating, Johnsongrass (johnsongrass; [3]): 0
- Plant response rating, Johnsongrass (johnsongrass; [4]): 5
- Johnsongrass plant response rating (johnsongrass; [5]): 0
- Johnsongrass plant response rating (johnsongrass; [6]): 55
- Plant response rating, Johnsongrass (johnsongrass; [7]): 65
- Plant response rating (scale of 0 to 100), Johnsongrass (johnsongrass; Preemergence, 250 g ai/ha): 80
- Plant response rating, Ragweed (ragweed; [1]): 0
- Plant response rating, Ragweed (ragweed; [2]): 0
- Plant response rating, Ragweed (ragweed; [3]): 40
- Plant response rating, Ragweed (ragweed; [4]): 55
- Ragweed plant response rating (ragweed; [5]): 5
- Ragweed plant response rating (ragweed; [6]): 70
- Plant response rating, Ragweed (ragweed; [7]): 75
- Plant response rating (scale of 0 to 100), Ragweed (ragweed; Preemergence, 250 g ai/ha): 80
- Plant response rating, Rice (rice): 30
- Plant response rating, Barnyardgrass (barnyardgrass; [1]): 10
- Plant response rating, Barnyardgrass (barnyardgrass; [2]): 60
- Plant response rating, Barnyardgrass (barnyardgrass; [3]): 70
- Plant response rating, Barnyardgrass (barnyardgrass; [4]): 70
- Barnyardgrass plant response rating (barnyardgrass; [5]): 90
- Barnyardgrass plant response rating (barnyardgrass; [6]): 95
- Plant response rating, Barnyardgrass (barnyardgrass; [7]): 95
- Plant response rating (scale of 0 to 100; 0 is no effect, 100 is complete control), Barnyardgrass (barnyardgrass; Preemergence, 250 g ai/ha): 98
- Plant response rating, Waterhemp (waterhemp; [1]): 0
- Plant response rating, Waterhemp (waterhemp; [2]): 35
- Plant response rating, Waterhemp (waterhemp; [3]): 0
- Plant response rating, Waterhemp (waterhemp; [4]): 25
- Waterhemp plant response rating (waterhemp; [5]): 40
- Waterhemp plant response rating (waterhemp; [6]): 65
- Plant response rating, Waterhemp (waterhemp; [7]): 65
- Plant response rating (scale of 0 to 100), Waterhemp (waterhemp; Preemergence, 250 g ai/ha): 75
- Plant response rating, Morningglory (morningglory; [1]): 10
- Plant response rating, Morningglory (morningglory; [2]): 60
- Plant response rating, Morningglory (morningglory; [3]): 0
- Plant response rating, Morningglory (morningglory; [4]): 0
- Morningglory plant response rating (morningglory; [5]): 0
- Morningglory plant response rating (morningglory; [6]): 0
- Plant response rating, Morningglory (morningglory; [7]): 15
- Plant response rating (scale of 0 to 100), Morningglory (morningglory; Preemergence, 250 g ai/ha): 45
- Plant response rating, Corn (corn; [12]): 50
- Plant response rating, Corn (corn; [13]): 70

SMILES: CN1CC(c2cccc(C(F)(F)F)c2)C(C(=O)Nc2cccc(F)c2F)C1=O (centres unmarked) [Compound 305]
- Plant response rating, Soybean (soybean; [1]): 10
- Plant response rating, Soybean (soybean; [2]): 0
- Plant response rating, Soybean (soybean; [3]): 0
- Plant response rating, Soybean (soybean; [4]): 0
- Soybean plant response rating (soybean; [5]): 0
- Soybean plant response rating (soybean; [6]): 0
- Plant response rating, Soybean (soybean; [7]): 0
- Plant response rating (scale of 0 to 100), Soybean (soybean; Preemergence, 250 g ai/ha): 0
- Plant response rating, Sedge, Umbrella (sedge, umbrella): 0
- Plant response rating, Oat, Wild (oat, wild; [8]): 0
- Plant response rating, Oat, Wild (oat, wild; [9]): 0
- Plant response rating, Oat, Wild (oat, wild; [10]): 0
- Plant response rating, Oat, Wild (oat, wild; [11]): 30
- Plant response rating, Lambsquarters (lambsquarters; [1]): 60
- Plant response rating, Lambsquarters (lambsquarters; [2]): 35
- Plant response rating, Lambsquarters (lambsquarters; [3]): 50
- Plant response rating, Lambsquarters (lambsquarters; [4]): 65
- Lambsquarters plant response rating (lambsquarters; [5]): 60
- Lambsquarters plant response rating (lambsquarters; [6]): 70
- Plant response rating, Lambsquarters (lambsquarters; [7]): 70
- Plant response rating (scale of 0 to 100), Lambsquarters (lambsquarters; Preemergence, 250 g ai/ha): 75
- Plant response rating, Johnsongrass (johnsongrass; [1]): 0
- Plant response rating, Johnsongrass (johnsongrass; [2]): 0
- Plant response rating, Johnsongrass (johnsongrass; [3]): 20
- Plant response rating, Johnsongrass (johnsongrass; [4]): 20
- Johnsongrass plant response rating (johnsongrass; [5]): 80
- Johnsongrass plant response rating (johnsongrass; [6]): 85
- Plant response rating, Johnsongrass (johnsongrass; [7]): 90
- Plant response rating (scale of 0 to 100), Johnsongrass (johnsongrass; Preemergence, 250 g ai/ha): 90
- Plant response rating, Ragweed (ragweed; [1]): 0
- Plant response rating, Ragweed (ragweed; [2]): 0
- Plant response rating, Ragweed (ragweed; [3]): 40
- Plant response rating, Ragweed (ragweed; [4]): 45
- Ragweed plant response rating (ragweed; [5]): 0
- Ragweed plant response rating (ragweed; [6]): 15
- Plant response rating, Ragweed (ragweed; [7]): 35
- Plant response rating (scale of 0 to 100), Ragweed (ragweed; Preemergence, 250 g ai/ha): 75
- Plant response rating, Rice (rice): 15
- Plant response rating, Barnyardgrass (barnyardgrass; [1]): 20
- Plant response rating, Barnyardgrass (barnyardgrass; [2]): 55
- Plant response rating, Barnyardgrass (barnyardgrass; [3]): 70
- Plant response rating, Barnyardgrass (barnyardgrass; [4]): 80
- Barnyardgrass plant response rating (barnyardgrass; [5]): 90
- Barnyardgrass plant response rating (barnyardgrass; [6]): 95
- Plant response rating, Barnyardgrass (barnyardgrass; [7]): 95
- Plant response rating (scale of 0 to 100; 0 is no effect, 100 is complete control), Barnyardgrass (barnyardgrass; Preemergence, 250 g ai/ha): 98
- Plant response rating, Waterhemp (waterhemp; [1]): 10
- Plant response rating, Waterhemp (waterhemp; [2]): 10
- Plant response rating, Waterhemp (waterhemp; [3]): 35
- Plant response rating, Waterhemp (waterhemp; [4]): 40
- Waterhemp plant response rating (waterhemp; [5]): 40
- Waterhemp plant response rating (waterhemp; [6]): 65
- Plant response rating, Waterhemp (waterhemp; [7]): 80
- Plant response rating (scale of 0 to 100), Waterhemp (waterhemp; Preemergence, 250 g ai/ha): 80
- Plant response rating, Morningglory (morningglory; [1]): 25
- Plant response rating, Morningglory (morningglory; [2]): 20
- Plant response rating, Morningglory (morningglory; [3]): 75
- Plant response rating, Morningglory (morningglory; [4]): 20
- Morningglory plant response rating (morningglory; [5]): 0
- Morningglory plant response rating (morningglory; [6]): 30
- Plant response rating, Morningglory (morningglory; [7]): 40
- Plant response rating (scale of 0 to 100), Morningglory (morningglory; Preemergence, 250 g ai/ha): 65
- Plant response rating, Corn (corn; [12]): 70
- Plant response rating, Corn (corn; [13]): 70
